# Numbers after ± are expanded uncertainties.
# What was measured:
# [1] = xn = mol fraction of the nth substance listed; settings: 298.15 K, 100 kPa, Liquid, Vibrating tube method
# [2] = excess molar enthalpy (molar enthalpy of mixing); xn = mol fraction of the nth substance listed; settings: 298.15 K, 100 kPa, Liquid, Calvet calorimetry
# [3] = refractive index (Na D-line) (dimensionless); settings: 298.15 K; 101.33 kPa; Liquid; Standard Abbe refractometry
# [4] = 298.15 K; 100 kPa; Liquid; Vibrating tube method
smiles,measurement,setting,value
"CC(C)CC(C)(C)C [2,2,4-trimethylpentane] + CCCC(=O)OC",mass density,[1]; x1 = 1,687.75 ± 1 kg/m3
"CC(C)CC(C)(C)C [2,2,4-trimethylpentane] + COC(C)=O",mass density,[1]; x1 = 1,687.75 ± 1 kg/m3
COC(C)=O [methyl ethanoate] + CCCCC(=O)OC,mass density,[1]; x2 = 0,927.16 ± 1 kg/m3
CCCC(=O)OC [methyl butanoate] + CCCCCCCC,mass density,[1]; x2 = 0,892.34 ± 1 kg/m3
same,mass density,[1]; x2 = 0.059,875.04 ± 1 kg/m3
same,mass density,[1]; x2 = 0.1109,860.65 ± 1 kg/m3
same,mass density,[1]; x2 = 0.152,849.82 ± 1 kg/m3
same,mass density,[1]; x2 = 0.2051,836.56 ± 1 kg/m3
same,mass density,[1]; x2 = 0.2557,824.52 ± 1 kg/m3
same,mass density,[1]; x2 = 0.2992,814.89 ± 1 kg/m3
same,mass density,[1]; x2 = 0.3501,803.53 ± 1 kg/m3
same,mass density,[1]; x2 = 0.4045,792.24 ± 1 kg/m3
same,mass density,[1]; x2 = 0.4516,782.9 ± 1 kg/m3
same,mass density,[1]; x2 = 0.4978,774.12 ± 1 kg/m3
same,mass density,[1]; x2 = 0.5469,765.18 ± 1 kg/m3
same,mass density,[1]; x2 = 0.5862,758.27 ± 1 kg/m3
same,mass density,[1]; x2 = 0.6551,746.75 ± 1 kg/m3
same,mass density,[1]; x2 = 0.6989,739.74 ± 1 kg/m3
same,mass density,[1]; x2 = 0.7471,732.42 ± 1 kg/m3
same,mass density,[1]; x2 = 0.7931,725.7 ± 1 kg/m3
same,mass density,[1]; x2 = 0.8428,718.65 ± 1 kg/m3
same,mass density,[1]; x2 = 0.9009,710.74 ± 1 kg/m3
same,mass density,[1]; x2 = 0.9367,706.37 ± 1 kg/m3
same,mass density,[1]; x2 = 0.9651,702.84 ± 1 kg/m3
same,mass density,[1]; x2 = 0.9655,702.79 ± 1 kg/m3
same,excess molar enthalpy,[2]; x2 = 0.0438,0.0509 ± 0.0012 kcal/mol
same,excess molar enthalpy,[2]; x2 = 0.0922,0.0987 ± 0.00215 kcal/mol
same,excess molar enthalpy,[2]; x2 = 0.144,0.144 ± 0.00311 kcal/mol
same,excess molar enthalpy,[2]; x2 = 0.1978,0.184 ± 0.00406 kcal/mol
same,excess molar enthalpy,[2]; x2 = 0.2521,0.218 ± 0.00478 kcal/mol
same,excess molar enthalpy,[2]; x2 = 0.3043,0.244 ± 0.00526 kcal/mol
same,excess molar enthalpy,[2]; x2 = 0.3543,0.264 ± 0.00574 kcal/mol
same,excess molar enthalpy,[2]; x2 = 0.403,0.278 ± 0.00598 kcal/mol
same,excess molar enthalpy,[2]; x2 = 0.4321,0.286 ± 0.00621 kcal/mol
same,excess molar enthalpy,[2]; x2 = 0.4779,0.291 ± 0.00621 kcal/mol
same,excess molar enthalpy,[2]; x2 = 0.5368,0.288 ± 0.00621 kcal/mol
same,excess molar enthalpy,[2]; x2 = 0.6033,0.276 ± 0.00598 kcal/mol
same,excess molar enthalpy,[2]; x2 = 0.676,0.251 ± 0.0055 kcal/mol
same,excess molar enthalpy,[2]; x2 = 0.757,0.21 ± 0.00454 kcal/mol
same,excess molar enthalpy,[2]; x2 = 0.8413,0.153 ± 0.00335 kcal/mol
same,excess molar enthalpy,[2]; x2 = 0.9231,0.0865 ± 0.00191 kcal/mol
CCCC(=O)OC [methyl butanoate] + COC(C)=O,mass density,[1]; x1 = 0.0106,926.21 ± 1 kg/m3
same,mass density,[1]; x1 = 0.0564,923.86 ± 1 kg/m3
same,mass density,[1]; x1 = 0.1023,921.52 ± 1 kg/m3
same,mass density,[1]; x1 = 0.1361,919.91 ± 1 kg/m3
same,mass density,[1]; x1 = 0.203,916.91 ± 1 kg/m3
same,mass density,[1]; x1 = 0.2536,914.74 ± 1 kg/m3
same,mass density,[1]; x1 = 0.3054,912.64 ± 1 kg/m3
same,mass density,[1]; x1 = 0.4122,908.65 ± 1 kg/m3
same,mass density,[1]; x1 = 0.4511,907.3 ± 1 kg/m3
same,mass density,[1]; x1 = 0.5456,904.19 ± 1 kg/m3
same,mass density,[1]; x1 = 0.5906,902.8 ± 1 kg/m3
same,mass density,[1]; x1 = 0.6148,902.08 ± 1 kg/m3
same,mass density,[1]; x1 = 0.6958,899.76 ± 1 kg/m3
same,mass density,[1]; x1 = 0.7394,898.57 ± 1 kg/m3
same,mass density,[1]; x1 = 0.7873,897.29 ± 1 kg/m3
same,mass density,[1]; x1 = 0.8368,896.07 ± 1 kg/m3
same,mass density,[1]; x1 = 0.8884,894.85 ± 1 kg/m3
same,mass density,[1]; x1 = 0.9538,893.32 ± 1 kg/m3
same,mass density,[1]; x1 = 0.974,892.87 ± 1 kg/m3
same,mass density,[1]; x1 = 1,892.34 ± 1 kg/m3
same,excess molar enthalpy,[2]; x1 = 0.027,0.00526 ± 0.000239 kcal/mol
same,excess molar enthalpy,[2]; x1 = 0.0962,0.0127 ± 0.000478 kcal/mol
same,excess molar enthalpy,[2]; x1 = 0.1645,0.0198 ± 0.000478 kcal/mol
same,excess molar enthalpy,[2]; x1 = 0.226,0.0244 ± 0.000717 kcal/mol
same,excess molar enthalpy,[2]; x1 = 0.2888,0.0287 ± 0.000717 kcal/mol
same,excess molar enthalpy,[2]; x1 = 0.3478,0.0323 ± 0.000717 kcal/mol
same,excess molar enthalpy,[2]; x1 = 0.4002,0.0342 ± 0.000717 kcal/mol
same,excess molar enthalpy,[2]; x1 = 0.4437,0.0356 ± 0.000956 kcal/mol
same,excess molar enthalpy,[2]; x1 = 0.4822,0.0361 ± 0.000956 kcal/mol
same,excess molar enthalpy,[2]; x1 = 0.5276,0.0356 ± 0.000956 kcal/mol
same,excess molar enthalpy,[2]; x1 = 0.5725,0.0349 ± 0.000717 kcal/mol
same,excess molar enthalpy,[2]; x1 = 0.6268,0.033 ± 0.000717 kcal/mol
same,excess molar enthalpy,[2]; x1 = 0.6958,0.0292 ± 0.000717 kcal/mol
same,excess molar enthalpy,[2]; x1 = 0.7669,0.0239 ± 0.000717 kcal/mol
same,excess molar enthalpy,[2]; x1 = 0.8497,0.0165 ± 0.000478 kcal/mol
same,excess molar enthalpy,[2]; x1 = 0.9313,0.0086 ± 0.000239 kcal/mol
CCCCCCCC [octane] + CCCCC(=O)OC,mass density,[1]; x1 = 1,698.58 ± 1 kg/m3
"CC(C)CC(C)(C)C [2,2,4-trimethylpentane]",refractive index,[3],1.389 ± 0.0005
same,mass density,[4],687.75 ± 1 kg/m3
CCCCC(=O)OC [methyl pentanoate] + COC(C)=O,mass density,[1]; x1 = 0.0496,922.92 ± 1 kg/m3
same,mass density,[1]; x1 = 0.1001,919.44 ± 1 kg/m3
same,mass density,[1]; x1 = 0.1536,916.04 ± 1 kg/m3
same,mass density,[1]; x1 = 0.2027,913.18 ± 1 kg/m3
same,mass density,[1]; x1 = 0.2511,910.53 ± 1 kg/m3
same,mass density,[1]; x1 = 0.3522,905.55 ± 1 kg/m3
same,mass density,[1]; x1 = 0.4013,903.35 ± 1 kg/m3
same,mass density,[1]; x1 = 0.4497,901.35 ± 1 kg/m3
same,mass density,[1]; x1 = 0.4935,899.62 ± 1 kg/m3
same,mass density,[1]; x1 = 0.5444,897.75 ± 1 kg/m3
same,mass density,[1]; x1 = 0.5935,896.01 ± 1 kg/m3
same,mass density,[1]; x1 = 0.6563,893.98 ± 1 kg/m3
same,mass density,[1]; x1 = 0.7383,891.47 ± 1 kg/m3
same,mass density,[1]; x1 = 0.7902,890.02 ± 1 kg/m3
same,mass density,[1]; x1 = 0.843,888.62 ± 1 kg/m3
same,mass density,[1]; x1 = 0.8918,887.4 ± 1 kg/m3
same,mass density,[1]; x1 = 0.9372,886.3 ± 1 kg/m3
same,mass density,[1]; x1 = 1,884.84 ± 1 kg/m3
same,excess molar enthalpy,[2]; x1 = 0.0539,0.012 ± 0.000478 kcal/mol
same,excess molar enthalpy,[2]; x1 = 0.113,0.0229 ± 0.000478 kcal/mol
same,excess molar enthalpy,[2]; x1 = 0.1716,0.0323 ± 0.000717 kcal/mol
same,excess molar enthalpy,[2]; x1 = 0.2347,0.0413 ± 0.000956 kcal/mol
same,excess molar enthalpy,[2]; x1 = 0.2915,0.0473 ± 0.0012 kcal/mol
same,excess molar enthalpy,[2]; x1 = 0.344,0.0521 ± 0.0012 kcal/mol
same,excess molar enthalpy,[2]; x1 = 0.3954,0.0552 ± 0.0012 kcal/mol
same,excess molar enthalpy,[2]; x1 = 0.4441,0.0571 ± 0.0012 kcal/mol
same,excess molar enthalpy,[2]; x1 = 0.5055,0.0569 ± 0.0012 kcal/mol
same,excess molar enthalpy,[2]; x1 = 0.5754,0.0545 ± 0.0012 kcal/mol
same,excess molar enthalpy,[2]; x1 = 0.6517,0.0507 ± 0.0012 kcal/mol
same,excess molar enthalpy,[2]; x1 = 0.7339,0.0425 ± 0.000956 kcal/mol
same,excess molar enthalpy,[2]; x1 = 0.8188,0.0301 ± 0.000717 kcal/mol
same,excess molar enthalpy,[2]; x1 = 0.9036,0.0179 ± 0.000478 kcal/mol
CCCCC(=O)OC [methyl pentanoate] + CC(C)CC(C)(C)C,mass density,[1]; x2 = 0,884.84 ± 1 kg/m3
same,mass density,[1]; x2 = 0.0537,871.44 ± 1 kg/m3
same,mass density,[1]; x2 = 0.1588,846.38 ± 1 kg/m3
same,mass density,[1]; x2 = 0.2505,825.53 ± 1 kg/m3
same,mass density,[1]; x2 = 0.3544,803.1 ± 1 kg/m3
same,mass density,[1]; x2 = 0.4518,783.06 ± 1 kg/m3
same,mass density,[1]; x2 = 0.4984,773.84 ± 1 kg/m3
same,mass density,[1]; x2 = 0.5417,765.44 ± 1 kg/m3
same,mass density,[1]; x2 = 0.642,746.75 ± 1 kg/m3
same,mass density,[1]; x2 = 0.6854,738.97 ± 1 kg/m3
same,mass density,[1]; x2 = 0.7425,728.98 ± 1 kg/m3
same,mass density,[1]; x2 = 0.7967,719.79 ± 1 kg/m3
same,mass density,[1]; x2 = 0.8148,716.75 ± 1 kg/m3
same,mass density,[1]; x2 = 0.8415,712.32 ± 1 kg/m3
same,mass density,[1]; x2 = 0.8779,706.53 ± 1 kg/m3
same,mass density,[1]; x2 = 0.8999,702.99 ± 1 kg/m3
same,mass density,[1]; x2 = 0.9409,696.52 ± 1 kg/m3
same,excess molar enthalpy,[2]; x2 = 0.0438,0.0344 ± 0.000956 kcal/mol
same,excess molar enthalpy,[2]; x2 = 0.0963,0.0672 ± 0.00143 kcal/mol
same,excess molar enthalpy,[2]; x2 = 0.1589,0.105 ± 0.00239 kcal/mol
same,excess molar enthalpy,[2]; x2 = 0.2206,0.137 ± 0.00287 kcal/mol
same,excess molar enthalpy,[2]; x2 = 0.2692,0.159 ± 0.00335 kcal/mol
same,excess molar enthalpy,[2]; x2 = 0.3311,0.177 ± 0.00382 kcal/mol
same,excess molar enthalpy,[2]; x2 = 0.3825,0.191 ± 0.00406 kcal/mol
same,excess molar enthalpy,[2]; x2 = 0.436,0.201 ± 0.0043 kcal/mol
same,excess molar enthalpy,[2]; x2 = 0.4818,0.207 ± 0.00454 kcal/mol
same,excess molar enthalpy,[2]; x2 = 0.5239,0.211 ± 0.00454 kcal/mol
same,excess molar enthalpy,[2]; x2 = 0.5638,0.212 ± 0.00454 kcal/mol
same,excess molar enthalpy,[2]; x2 = 0.5679,0.211 ± 0.00454 kcal/mol
same,excess molar enthalpy,[2]; x2 = 0.6024,0.208 ± 0.00454 kcal/mol
same,excess molar enthalpy,[2]; x2 = 0.6258,0.205 ± 0.0043 kcal/mol
same,excess molar enthalpy,[2]; x2 = 0.7031,0.189 ± 0.00406 kcal/mol
same,excess molar enthalpy,[2]; x2 = 0.7813,0.157 ± 0.00335 kcal/mol
same,excess molar enthalpy,[2]; x2 = 0.8452,0.121 ± 0.00263 kcal/mol
same,excess molar enthalpy,[2]; x2 = 0.9243,0.071 ± 0.00167 kcal/mol
"CC(C)CC(C)(C)C [2,2,4-trimethylpentane] + CCCCC(=O)OC",mass density,[1]; x1 = 1,687.75 ± 1 kg/m3
CCCCCCCC [octane],refractive index,[3],1.3952 ± 0.0005
same,mass density,[4],698.58 ± 1 kg/m3

# — the NIST ThermoML archive (doi:10.1021/acs.jced.5b00813)
